# Test results as given in patent publication US9034895B2, “Composition and methods for treating glioblastoma” (University of Washington Through its Center for …, priority 2010, dated 2015).
# Legend:
# [1] = system: mouse neurons in primary culture; assay: Toxic profile in neurons in primary culture; format: cell-based
# GPR124 = target: T1, GPR124 (Homo sapiens, UniProt Q96PE1); assay: siRNA knock-down of GPCR candidates, JWH-451 toxicity in T98g cells; format: cell-based; conditions: JWH-451 1 μM, siRNA targeting GPR124, viability after three days
# T1 construct: endogenous in cells; host or cells: T98g human astrocytoma cells
# T1 sequence (Q96PE1 34-1338): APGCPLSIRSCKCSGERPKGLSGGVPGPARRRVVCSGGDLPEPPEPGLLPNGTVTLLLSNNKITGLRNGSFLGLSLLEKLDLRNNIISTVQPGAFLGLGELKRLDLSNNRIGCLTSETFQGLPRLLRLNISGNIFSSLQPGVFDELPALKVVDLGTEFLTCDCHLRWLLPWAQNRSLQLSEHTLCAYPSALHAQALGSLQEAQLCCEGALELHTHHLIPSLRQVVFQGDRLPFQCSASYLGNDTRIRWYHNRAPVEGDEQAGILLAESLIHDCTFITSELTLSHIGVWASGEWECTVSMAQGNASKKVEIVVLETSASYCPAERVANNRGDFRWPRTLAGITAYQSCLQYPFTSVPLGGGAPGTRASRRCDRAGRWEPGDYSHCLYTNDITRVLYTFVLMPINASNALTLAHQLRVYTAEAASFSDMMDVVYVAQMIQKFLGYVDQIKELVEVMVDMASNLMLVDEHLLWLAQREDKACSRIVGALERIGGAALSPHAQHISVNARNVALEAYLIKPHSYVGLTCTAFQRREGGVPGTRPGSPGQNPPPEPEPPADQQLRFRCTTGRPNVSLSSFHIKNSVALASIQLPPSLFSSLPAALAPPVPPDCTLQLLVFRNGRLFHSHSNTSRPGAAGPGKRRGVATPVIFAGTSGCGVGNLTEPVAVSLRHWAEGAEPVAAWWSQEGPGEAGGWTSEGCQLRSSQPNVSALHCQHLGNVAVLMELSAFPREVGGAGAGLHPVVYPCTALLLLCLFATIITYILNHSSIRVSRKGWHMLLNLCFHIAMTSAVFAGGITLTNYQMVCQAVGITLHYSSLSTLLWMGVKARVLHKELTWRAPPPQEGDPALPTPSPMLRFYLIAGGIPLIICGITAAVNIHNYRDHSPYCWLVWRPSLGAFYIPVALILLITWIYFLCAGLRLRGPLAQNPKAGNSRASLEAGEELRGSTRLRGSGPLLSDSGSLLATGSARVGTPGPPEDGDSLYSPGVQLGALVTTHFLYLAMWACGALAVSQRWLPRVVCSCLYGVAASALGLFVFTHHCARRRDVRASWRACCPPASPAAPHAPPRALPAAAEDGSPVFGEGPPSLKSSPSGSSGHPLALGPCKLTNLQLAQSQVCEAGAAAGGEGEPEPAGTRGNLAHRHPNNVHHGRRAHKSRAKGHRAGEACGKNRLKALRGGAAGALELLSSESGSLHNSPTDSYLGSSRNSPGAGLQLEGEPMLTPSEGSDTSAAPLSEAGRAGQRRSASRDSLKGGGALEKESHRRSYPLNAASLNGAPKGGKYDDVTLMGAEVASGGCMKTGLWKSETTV
# Procedure: To determine which of the gene candidate encodes for AAI receptors, an siRNA approach is used to knock down each candidate individually to determine which one prevents the toxic effect of JWH-451 and thus encodes for AAI receptors. The prediction is that knocking down AAI receptors prevents the cell death induced by JWH-451. T98g cells were treated with siRNA targeting each of the 39 GPCR gene candidates individually. The first experiment was designed to knock down each GPCR candidate using a mixture of 3 siRNAs thus maximize genetic targeting efficacy. Thus, cells were incubated with siRNA mixtures and then treated with JWH-451 (1 μM) and cell viability measured after three days. Only one mixture of siRNAs (that targeting GPR124) decreased the toxicity of JWH-451. […] Two of the three siRNAs knocked-down GPR124 expression by more than 80% over 4 days (FIG. 3b). […] The killing effect induced by JWH-451 is mediated by GPR124, a AAI receptor.
smiles,measurement,setting,value
"CCn1c(C)c(C(=O)c2ccc(C)c3ccccc23)c2ccccc21 [JWH-451, 1-Ethyl-2-methyl-3-(4-methyl-1-napthoyl)indole]",viability of mouse neurons in primary culture,[1],did not affect the viability
same,JWH-451-induced killing of T98g cells when GPR124 mRNA expression is reduced,GPR124,reduced
